The target in test [1] is T1, IDH2/R140Q (Homo sapiens, UniProt P48735, R140Q).
T1 sequence (P48735 40-452 R140Q): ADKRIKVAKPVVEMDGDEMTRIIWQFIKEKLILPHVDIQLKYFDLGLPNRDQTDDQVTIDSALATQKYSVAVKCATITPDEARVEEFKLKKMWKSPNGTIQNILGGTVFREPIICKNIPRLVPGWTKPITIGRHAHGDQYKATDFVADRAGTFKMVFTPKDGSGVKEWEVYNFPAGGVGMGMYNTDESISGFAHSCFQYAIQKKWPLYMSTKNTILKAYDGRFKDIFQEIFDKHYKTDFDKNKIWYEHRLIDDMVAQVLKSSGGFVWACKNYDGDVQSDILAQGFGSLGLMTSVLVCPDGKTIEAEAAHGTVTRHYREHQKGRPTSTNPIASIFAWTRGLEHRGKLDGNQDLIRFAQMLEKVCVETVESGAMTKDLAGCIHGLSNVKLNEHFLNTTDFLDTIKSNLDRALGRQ
Kind of test: Determination of the inhibitory activity of the compounds on IDH2/R140Q (NADPH reduction, resazurin/lipoamide dehydrogenase detection). It is filed as biochemical. Further details: purchased Abcam ab198153. Particulars: IDH2/R140Q inhibitory activity, read-out: IC50. As for the experimental part: In this example, the inhibitory activity of a compound on IDH2/R140Q was determined by measuring the reduction of the cofactor NADPH. The compound was incubated with IDH2/R140Q and NADPH, and then the reaction was initiated by adding α-KG. After a certain time of reaction under linear conditions, lipoamide dehydrogenase and the corresponding substrate resazurin were added for detection. Lipoamide dehydrogenase terminated the IDH2/R140Q reaction bγ subtracting the available cofactor NADPH. It oxidized NADPH to NADP, and reduced resazurin to highly fluorescent resorufin. The production of resorufin was detected to quantify the amount of cofactor NADPH remaining after a specific reaction time.
Then 25 μL of a stop mixed solution (lipoamide dehydrogenase 36 μg/mL, resazurin 30 μM) prepared with the above reaction buffer was added to convert resazurin to resorufin to measure the remaining NADPH. After 10 minutes of incubation at 25° C., the fluorescence value was measured by Tecan […] […] The enzyme activity was measured at 10 concentrations for each compound, and multiple background holes without enzyme and full enzyme activity holes without compound were set up in the reaction. The concentration of dimethyl sulfoxide in the system was less than or equal to 2%. […] The multi-well plate in this example was purchased from Thermo Fisher Scientific, NADPH, α-KG, lipoamide dehydrogenase, and resazurin were purchased from Shenggong Bioengineering Co., Ltd., and IDH2/R140Q was purchased from Abcam (ab198153).
(The colour change of resazurin is a common sign of viable cells or microbes.)

The target in test [2] is T1, IDH2/R140Q. Kind of test: Inhibition of mutant IDH2 activity at the cell level (extracellular 2-HG, U87MG overexpressing IDH2/R140Q). The conditions noted are these: U87MG overexpressing IDH2/R140Q; 2-HG in medium after 24 hours of culturing with compound; read-out: IC50. It is filed as cell-based. As for the experimental part: 2-hydroxyglutarate dehydrogenase (2HGDH) can reduce NAD+ to NADH in the presence of 2-HG. The latter can be quantitatively detected by diaphorase and its substrate Resazurin.
The glioma cells U87MG overexpressing IDH2/R140Q mutation were cultured in 1% sodium pyruvate high-sugar MEM, 10% FBS, and placed in a CO2 incubator (37° C., 5% CO2, 95% air) for cultivation.
The cells were digested with trypsin and seeded in a 96-well plate at a density of 1×10^4 with a medium of 200 μL and cultured in a 37° C. incubator overnight. The next day, the test compound was added to a final concentration of 0.1% for DMSO. […] The protein and other components in the medium that may interfere with the results were filtered, and the follow-up method was used to detect the content of 2-HG. 50 uL CellTiter-Glo (purchased from Promega) was added to the 96-well plate with the remaining 100 μL of medium to detect cell survival;
Extracellular 2-HG detecting system:
(1) 50 μL reaction system: reaction buffer (50 mM Tris pH7.5, 100 mM NaCl, 20 mM MgCl2, 0.05% BSA), in which the final concentration of NAD+ was 40 μM, the final concentration of 2HGDH was 20 nM, and the test sample was added to 5 μL of medium; the reaction solution was mixed and centrifuged, and the reaction was carried out for 1 hour at 25° C. in the dark;
Preparation of 2-HG standard curve: a 2-HG stock solution was diluted to 20 μM with reaction buffer, and a 2-fold gradient diluting was performed for a total of 6 points. Afterwards, the above-mentioned 2-HG was measured according to the extracellular 2-HG detecting system, and a standard curve was calculated and drawn.
Calculation of extracellular 2-HG content:
The fluorescence value obtained in the extracellular 2-HG detecting system was calculated using the 2-HG standard curve to calculate the content of 2-HG in the medium, and DMSO was used as a negative control to calculate the compound's inhibition against IDH2/R140Q mutation producing 2-HG activity.

Where [3] appears, read: pre-incubated at 25° C. for 16 hours.

One may read the IC50 as the concentration that inhibits the measured activity by half. `Cc1cc2c(NC3CC3)nc(-c3ccc4ccccc4c3)nc2[nH]1` [Compound 15, N-cyclopropyl-6-methyl-2-(naphthalene-2-yl)-7H-pyrrolo[2,3-d]pyrimidin-4-amine]: the IC50 in test [1] (setting [3]) was over 10 µM.

For `Cc1cc2c(-c3ccccc3)nc(Nc3ccccc3)nc2[nH]1` [Compound 7, 6-methyl-N,4-diphenyl-7H-pyrrolo[2,3-d]pyrimidin-2-amine], the IC50 in test [1] (setting [3]) and in test [2] was 1 to 10 µM in each case.

Consider `CC(C)Nc1nc(-c2ccccc2)nc2[nH]c(-c3ccccc3)cc12` [Compound 46, N-isopropyl 2,6-diphenyl-7H-pyrrolo[2,3-d]pyrimidin-4-amine], for which the half-inhibitory concentration (IC50) in test [1] (setting [3]) and in test [2] was over 10 µM in each case.

For the compound `Cc1cc2c(NC3CC3)nc(-c3cccc(F)c3)nc2[nH]1` [Compound 34, N-cyclopropyl-2-(3-fluorophenyl)-6-methyl-7H-pyrrolo[2,3-d]pyrimidin-4-amine], the figures for the IC50 in test [1] (setting [3]) and in test [2] were 1 to 10 µM and 0.1 to 1 µM, respectively.

Turning to `c1ccc(Nc2nc(-c3ccccc3)nc3[nH]ccc23)cc1` [Compound 19, N,2-diphenyl-7H-pyrrolo[2,3-d]pyrimidin-4-amine], the 50% inhibitory concentration (IC50) in test [1] (setting [3]) and in test [2] was over 10 µM each time.

Consider `Cc1cc2c(NC(C)C)nc(-c3cccnc3)nc2[nH]1` [Compound 17, N-isopropyl-6-methyl-2-(pyridin-3-yl)-7H-pyrrolo[2,3-d]pyrimidin-4-amine], for which the concentration for half-maximal inhibition (IC50) in test [1] (setting [3]) and in test [2] was over 10 µM each time.

For `Cc1ccc(-c2nc(NC3CC3)c3cc(C)[nH]c3n2)cc1` [Compound 45, N-cyclopropyl-6-methyl-2-(p-tolyl)-7H-pyrrolo[2,3-d]pyrimidin-4-amine], the IC50 in test [1] (setting [3]) and in test [2] was 1 to 10 µM throughout.

In the case of `Cc1cc2c(Nc3ccnc(F)c3)nc(-c3ccccc3)nc2[nH]1` [Compound 21, N-(2-fluoropyridin-4-yl)-6-methyl-2-phenyl-7H-pyrrolo[2,3-d]pyrimidin-4-amine], the results for the 50% inhibitory concentration (IC50) in test [1] (setting [3]) and in test [2] were over 10 µM and 1 to 10 µM, respectively.

Consider `Cc1cc2c(NC(C)C)nc(-c3ccncc3)nc2[nH]1` [Compound 18, N-isopropyl-6-methyl-2-(pyridin-4-yl)-7H-pyrrolo[2,3-d]pyrimidin-4-amine], for which the 50% inhibitory concentration (IC50) in test [1] (setting [3]) and in test [2] was over 10 µM each time.

Consider `Cc1cc2c(NCC3CC3)nc(-c3ccccc3)nc2[nH]1` [Compound 29, N-(cyclopropylmethyl)-6-methyl-2-phenyl-7H-pyrrole[2,3-d]pyrimidin-4-amine], for which the IC50 in test [1] (setting [3]) and in test [2] was 1 to 10 µM throughout.

Consider `CC(C)n1cnc2c(Nc3ccnc(C(F)(F)F)c3)nc(-c3ccccn3)nc21` [Compound 10, 9-isopropyl-2-(pyridin-2-yl)-N-(2-(trifluoromethyl)pyridin-4-yl)-9H-purin-6-amine], for which the IC50 in test [1] (cells marked (1 h)) and in test [2] was over 10 µM throughout.

On to `Cn1ccc2c(Nc3ccccc3)nc(-c3ccccc3)nc21` [Compound 11, 7-methyl-N,2-diphenyl-7H-pyrrolo[2,3-d]pyrimidin-4-amine], for which the IC50 in test [1] (cells marked (1 h)) was over 10 µM.

For the compound `Cc1cc2c(NC3CCC3)nc(-c3ccccc3F)nc2[nH]1` [Compound 48, N-cyclobutyl-2-(2-fluorophenyl)-6-methyl-7H-pyrrolo[2,3-d]pyrimidin-4-amine], the IC50 in test [1] (setting [3]) and in test [2] was under 0.1 µM in each case.

Regarding `Cc1cc2c(NCC(C)(C)O)nc(-c3ccccc3)nc2[nH]1` [Compound 35, 2-methyl-1-((6-methyl-2-phenyl-7H-pyrrolo[2,3-d]pyrimidin-4-yl)amino)propan-2-ol], the IC50 in test [1] (setting [3]) is over 10 µM.

For the compound `CC(C)n1cnc2c(Nc3ccccc3)nc(-c3ccccc3)nc21` [Compound 1, 9-isopropyl-N,2-diphenyl-9H-purin-6-amine], the half-maximal inhibitory concentration (IC50) in test [1] (cells marked (1 h)) was over 10 µM.

`Cc1cc2c(Nc3cccc(F)c3)nc(-c3ccccc3)nc2[nH]1` [Compound 31, N-(3-fluorophenyl)-6-methyl-2-phenyl-7H-pyrrolo[2,3-d]pyrimidin-4-amine]: the half-maximal inhibitory concentration (IC50) in test [1] (setting [3]) and in test [2] was 1 to 10 µM each time.

For `CC(C)Nc1nc(-c2ccccc2)nc2[nH]ccc12` [Compound 32, N-isopropyl-2-phenyl-7H-pyrrolo[2,3-d]pyrimidin-4-amine], the IC50 in test [1] (setting [3]) was over 10 µM.

`Cc1cc2c(NC(C)(C)C)nc(-c3ccccc3)nc2[nH]1` [Compound 27, N-(tert-butyl)-6-methyl-2-phenyl-7H-pyrrolo[2,3-d]pyrimidin-4-amine]: in test [1] (setting [3]), the IC50 is over 10 µM.

`CCOC(=O)Cc1cc2c(Nc3ccccc3)nc(-c3ccccc3)nc2[nH]1` [Compound 44]: the half-maximal inhibitory concentration (IC50) in test [1] (setting [3]) and in test [2] was 1 to 10 µM in each case.

For `Cc1cc2c(NC3CCCCC3)nc(-c3ccccc3)nc2[nH]1` [Compound 37, N-cyclohexyl-6-methyl-2-phenyl-7H-pyrrolo[2,3-d]pyrimidin-4-amine], the concentration for half-maximal inhibition (IC50) in test [1] (setting [3]) and in test [2] was 1 to 10 µM in each case.

As to `Cc1cccc(-c2nc(NC3CC3)c3cc(C)[nH]c3n2)c1` [Compound 42, N-cyclopropyl-6-methyl-2-(m-tolyl)-7H-pyrrolo[2,3-d]pyrimidin-4-amine], the IC50 in test [1] (setting [3]) and in test [2] was 0.1 to 1 µM throughout.

As for `Cc1cc2c(Nc3ccccc3)nc(Nc3ccccc3)nc2[nH]1` [Compound 22, 6-methyl-N2,N4-diphenyl-7H-pyrrolo[2,3-d]pyrimidine-2,4-diamine], the figures for the IC50 in test [1] (setting [3]) and in test [2] were over 10 µM and 1 to 10 µM, respectively.

`Cc1cc2c(NC(C)C)nc(-c3ccccc3)nc2[nH]1` [Compound 13, N-isopropyl-6-methyl-2-phenyl-7H-pyrrolo[2,3-d]pyrimidin-4-amine]: the 50% inhibitory concentration (IC50) in test [1] (setting [3]) and in test [2] was 0.1 to 1 µM each time.

On to `Cc1cc2c(NC3CC3)nc(-c3ccc(O)cc3)nc2[nH]1` [Compound 47, 4-(4-(cyclopropylamino)-6-methyl-7H-pyrrolo[2,3-d]pyrimidin-2-yl)phenol], for which the half-maximal inhibitory concentration (IC50) in test [1] (setting [3]) and in test [2] was 0.1 to 1 µM throughout.

Regarding `CC(C)n1cnc2c(Nc3ccnc(C(F)(F)F)c3)nc(-c3ccncc3)nc21` [Compound 9, 9-isopropyl-2-(pyridin-4-yl)-N-(2-(trifluoromethyl)pyridin-4-yl)-9H-purin-6-amine], the IC50 in test [1] (cells marked (1 h)) and in test [2] was over 10 µM throughout.

Consider `Cc1cc2c(NCc3ccccc3)nc(-c3ccccc3)nc2[nH]1` [Compound 30, N-benzyl-6-methyl-2-phenyl-7H-pyrrolo[2,3-d]pyrimidin-4-amine], for which, in test [1] (setting [3]), the 50% inhibitory concentration (IC50) was over 10 µM.

`CC(C)Nc1nc(-c2ccccc2)nc2[nH]c(Br)cc12` [Compound 33, 6-bromo-N-isopropyl-2-phenyl-7H-pyrrolo[2,3-d]pyrimidin-4-amine]: in test [1] (setting [3]), the IC50 was over 10 µM.

For the compound `Cc1cc2c(-c3ccccc3)nc(-c3ccccc3)nc2[nH]1` [Compound 26, 6-methyl-2,4-diphenyl-7H-pyrrolo[2,3-d]pyrimidine], in test [1] (setting [3]), the half-maximal inhibitory concentration (IC50) is over 10 µM.

`COc1ccccc1Nc1nc(-c2ccccc2)nc2c1ncn2C(C)C` [Compound 2, 9-isopropyl-N-(2-methoxyphenyl)-2-phenyl-9H-purin-6-amine]: the IC50 in test [1] (cells marked (1 h)) is over 10 µM.

These data come from patent US20220204509A1, “PYRIMIDO FIVE-MEMBERED HETEROCYCLIC COMPOUND AND USE THEREOF AS MUTANT IDH2 INHIBITOR” (EPITAS BIOSCIENCES (SHANGHAI) CO., LTD., priority 2019, published 2022).
